Tests used:
WT A. thaliana seedlings = experiment: Root gravitropism of WT Arabidopsis seedlings (Experiment 8); format: in vivo
Method: (§1) Arabidopsis Columbia-0 wild type (WT) was used for assessing the effect of TAA on root growth and its effects on the expression of auxin-responsive genes. Seeds of A. thaliana were surface sterilized by suspending in 70% ethanol for 1 minute, followed by treatment with 10% bleach for 20 minutes. After thorough washing with sterile distilled water, the sterilized seeds were plated onto germination medium (half-strength Murashige and Skoog basal medium with vitamins (1/2 MS) medium supplemented with 1% sucrose and 0.7% plant agar) for germination. Germination was initiated by incubating the seeds in darkness at 5° C. for 2 days, followed by transfer to a light environment at 22° C. with a photoperiod of 16-h light/8-h dark for further growth. Stock solutions of TAA were prepared in DMSO (dimethyl sulfoxide). In control treatments, DMSO was used in equal amounts as present in the greatest concentration of TAA tested.
To analyze the effect of TAA on gravitropism, WT A. thaliana seeds were cultured on 1/2 MS medium for 8 days. Uniform seedlings were then selected and vertically grown in germination medium supplemented with different concentrations of TAA (1, 2, 5, 10, and 25 μM) for 24 h. Seedlings grown on media supplemented with DMSO were used as control. The plates were then rotated clockwise 90° to make the root parallel to the ground. The seedlings were allowed to grow for 73 h and the plates were photographed at different intervals. Image J software was used to measure the curvature of 16 plants each in the control and treatment groups.

AtLBD29, AT3G58190 = experiment: qRT-PCR of early auxin-responsive gene AtLBD29 (Experiment 9); format: in vivo, A. thaliana; settings: 5 and 10 μM TAA, both time points
Method: (§2) To analyze TAA responsive genes in Arabidopsis, WT Arabidopsis seeds were germinated as described and 14-day-old uniform-looking seedlings were initially acclimatized in liquid germination medium for 2 hours before transferring to medium containing different concentrations of TAA (5 and 10 μM). Seedlings in media supplemented with DMSO were used as control. Five random seedlings were selected and considered as one sample and three samples from both control and treatments were flash frozen in liquid nitrogen and total RNA was isolated using a TRIzol reagent (ThermoFisher Scientific, Cat #15596026).
(§3) Expression levels of seven previously reported early auxin-responsive genes were verified by qRT-PCR (quantitative reverse transcription polymerase chain reaction). RNA reverse transcription was performed using QuantiTect Reverse Transcription Kit (Qiagen). Three biological replicates and three technical replicates were used for all qRT-PCRs. Arabidopsis actin gene (AT3G18780) was used as internal reference.

[1] = tested on: tomato cotyledon explants; experiment: Root regeneration from tomato cotyledon explants in vitro (Experiment 2); format: cell-based, tomato cultivar Roma VF; settings: 0.05 and 0.1 mg/L
Method: Seeds of tomato cultivar Roma VF were sterilized by treating with 75% ethanol for 30 seconds at room temperature and washed with sterile water for five times. The seeds were then treated with 15% sodium hypochlorite for 10 minutes and washed five times in sterile water. The sterilized seeds were germinated on half-strength Murashige and Skoog (MS) medium in vitro. Cotyledons from 10-day old seedlings before first true leaves emerged were used as starting explants in all the experiments. The base and tip of the cotyledons were excised and the explants were transferred with the abaxial surface in contact with the culture medium. The basic culture medium consists of MS medium with vitamins supplemented with 30 g/L sucrose and gelled with 0.8% agar, and the pH of the medium was adjusted to 5.8±0.2. Plates were maintained at a light cycle of 16/8 hours day/night, temperature of 26/24° C. day/night, and relative humidity of 70% and subcultured on the same media after 14 days. Observations were made on 7, 14, 21 and 28 days of growth. All experiments were conducted with at least three replicates of 10 explants each.
In order to analyze the effect of TAA on root regeneration, the basic media were supplemented with different concentrations of TAA (0.05 and 0.1 mg/L) and further compared with individual effect of widely used auxins (IAA, NAA, IBA, 2,4 D) at similar concentrations.

AtIAA19 (AT3G15540) = experiment: qRT-PCR of early auxin-responsive gene AtIAA19 (Experiment 9); format: in vivo, A. thaliana; settings: 5 and 10 μM TAA
Method: as §2, §3

[2] = tested on: tomato cotyledon explants; experiment: Shoot regeneration from tomato cotyledon explants with 1 mg/L BAP (Experiment 3); format: cell-based, tomato cultivar Roma VF
WT Arabidopsis seedlings = experiment: Root growth of WT Arabidopsis seedlings (Experiment 6); format: in vivo, A. thaliana
Method: as §1
To analyze the effect of TAA on root growth, WT Arabidopsis seedlings were germinated as described and uniform-looking 8-day-old seedlings were transferred to germination medium supplemented with different concentrations of TAA (0.1, 1, 2, 5, 10, 25, 50, and 100 μM) or NAA/IAA/IBA (0.05, 0.1, 1, 2 and 5 μM). For IBA, two additional concentrations (10 and 25 μM) were also analyzed. Seedlings grown on media supplemented with an equal volume of DMSO were used as control. The seedlings were allowed to grow for 6 days and the plates were photographed at 24 h intervals. Primary root length was measured using Image J software. The difference in the number of lateral roots (LR) and root hairs was visually observed. Microscopic images were taken on a Leica Thunder Imager System (Leica Microsystems Ltd., Switzerland) and the images were processed with LAS X software.

AtARF19, AT1G19220 = experiment: qRT-PCR of early auxin-responsive gene AtARF19 (Experiment 9); format: in vivo, A. thaliana; settings: 5 and 10 μM TAA, both time points
Method: as §2, §3

O=C(O)Cc1ccsc1 [TAA]
growth angle of primary roots (WT A. thaliana seedlings; 50 h after treatment (FIG. 8b)): ~90 ° | growth angle of primary roots (WT A. thaliana seedlings; higher concentrations (5, 10 and 25 μM)): did not show a marked change in growth angle | rate of gravitropic response (WT A. thaliana seedlings; lower concentrations (1 and 2 μM), plates rotated 90°): enhanced the rate of gravitropic response | AtLBD29 expression (AtLBD29, AT3G58190): upregulation | root growth / root regeneration compared with known auxins ([1]; after Day 7 (FIG. 3)): performs on par with most known auxins | organogenesis from tomato cotyledon explants (root formation) ([1]; no other hormones, within 7 days): rapid root formation | AtIAA19 expression (AtIAA19 (AT3G15540)): induction | number of shoots (shoot regeneration) ([2]; 10.0 mg/L with 1 mg/L BAP): maximum number of shoots | start of shoot formation ([2]; 0.05, 0.1, 0.5, 1.0, 2.0 and 10.0 mg/L with 1 mg/L BAP): ~14 days | shoot organogenesis ([2]; 0.05, 0.1, 0.5, 1.0, 2.0 and 10.0 mg/L with 1 mg/L BAP, by Day 28): many explants had well defined shoots | length of the primary root relative to control (WT Arabidopsis seedlings; 50 μM, after 6 days of treatment, 8-day-old seedlings): 50% | number and elongation of lateral roots (LR) (WT Arabidopsis seedlings; higher concentrations (5 μM and above)): reduced the number of LR and inhibited the elongation of LR | effect on primary root length (WT Arabidopsis seedlings; low concentration range (FIG. 8a)): promoter role | number of lateral roots (LR) (WT Arabidopsis seedlings; lower concentrations of TAA): increased | AtARF19 expression (AtARF19, AT1G19220): upregulation
